Data set [1] concerns the target T1, Neuropeptide Y receptor type 1 (Homo sapiens, UniProt P25929).
T1 sequence (P25929 whole entry): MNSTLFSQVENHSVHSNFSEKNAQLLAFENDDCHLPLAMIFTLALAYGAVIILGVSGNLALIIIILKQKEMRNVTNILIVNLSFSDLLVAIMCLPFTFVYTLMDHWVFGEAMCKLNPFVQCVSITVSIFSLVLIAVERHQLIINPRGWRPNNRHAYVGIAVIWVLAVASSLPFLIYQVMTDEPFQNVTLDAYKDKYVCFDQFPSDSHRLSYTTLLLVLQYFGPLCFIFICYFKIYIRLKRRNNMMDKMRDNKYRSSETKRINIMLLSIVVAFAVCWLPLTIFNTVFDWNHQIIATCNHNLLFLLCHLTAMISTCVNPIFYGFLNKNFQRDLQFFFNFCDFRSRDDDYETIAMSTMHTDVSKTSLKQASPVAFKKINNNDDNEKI
The experiment in a line: Displacement of [3H]UR-MK114 from neuropeptide Y1 receptor in human SK-N-MC cells. Format: cell-based. Background: Displacement assays read how much labelled ligand stays bound in the presence of the test substance.

The target of data set [2] is T2, Neuropeptide Y receptor type 2 (Homo sapiens, UniProt P49146).
T2 sequence (P49146 whole entry): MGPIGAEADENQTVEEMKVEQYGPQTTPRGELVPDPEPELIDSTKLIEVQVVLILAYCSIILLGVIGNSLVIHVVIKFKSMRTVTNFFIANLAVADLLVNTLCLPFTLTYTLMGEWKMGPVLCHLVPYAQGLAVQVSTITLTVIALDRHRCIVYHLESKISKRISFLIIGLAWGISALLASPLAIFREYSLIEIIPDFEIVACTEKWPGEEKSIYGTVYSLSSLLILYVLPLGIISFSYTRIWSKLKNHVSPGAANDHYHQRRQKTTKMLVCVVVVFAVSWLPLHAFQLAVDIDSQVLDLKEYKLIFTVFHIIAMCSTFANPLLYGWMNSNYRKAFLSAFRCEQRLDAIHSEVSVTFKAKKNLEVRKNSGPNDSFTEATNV
The experiment in a line: Displacement of Dy-635-pNPY from human neuropeptide Y2 receptor expressed in CHO cells coexpressing Galphaqi5 and aequorin by flow cytometric assay. The format is cell-based. Background: Flow cytometry measures light scatter and fluorescence of single cells or particles in a stream.

The target in data set [3] is T3, Neuropeptide Y receptor type 5 (Homo sapiens, UniProt Q15761).
T3 sequence (Q15761 whole entry): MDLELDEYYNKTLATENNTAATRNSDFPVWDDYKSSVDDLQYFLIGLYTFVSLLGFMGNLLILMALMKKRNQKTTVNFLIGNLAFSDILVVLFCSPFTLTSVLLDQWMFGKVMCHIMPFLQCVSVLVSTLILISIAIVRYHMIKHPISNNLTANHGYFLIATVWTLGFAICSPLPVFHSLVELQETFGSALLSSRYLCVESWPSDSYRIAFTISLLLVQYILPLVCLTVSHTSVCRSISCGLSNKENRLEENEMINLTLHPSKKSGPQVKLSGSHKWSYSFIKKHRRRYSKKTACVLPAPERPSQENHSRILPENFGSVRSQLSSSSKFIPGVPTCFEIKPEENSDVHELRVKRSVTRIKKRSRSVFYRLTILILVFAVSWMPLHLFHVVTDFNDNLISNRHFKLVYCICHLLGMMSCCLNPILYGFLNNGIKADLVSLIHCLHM
The experiment in a line: Displacement of Dy-635-pNPY from human neuropeptide Y5 receptor expressed in HEC-1B cells by flow cytometric assay. Format: cell-based.

Data set [4] deals with Neuropeptide Y receptor type 4 (Homo sapiens, UniProt P50391). The experiment in a line: Displacement of Cy5-[K4]-hPP from human neuropeptide Y4 receptor expressed in CHO cells coexpressing Galphaqi5 and aequorin by flow cytometric assay. The format is cell-based.
Neuropeptide Y receptor type 4, sequence (P50391 whole entry): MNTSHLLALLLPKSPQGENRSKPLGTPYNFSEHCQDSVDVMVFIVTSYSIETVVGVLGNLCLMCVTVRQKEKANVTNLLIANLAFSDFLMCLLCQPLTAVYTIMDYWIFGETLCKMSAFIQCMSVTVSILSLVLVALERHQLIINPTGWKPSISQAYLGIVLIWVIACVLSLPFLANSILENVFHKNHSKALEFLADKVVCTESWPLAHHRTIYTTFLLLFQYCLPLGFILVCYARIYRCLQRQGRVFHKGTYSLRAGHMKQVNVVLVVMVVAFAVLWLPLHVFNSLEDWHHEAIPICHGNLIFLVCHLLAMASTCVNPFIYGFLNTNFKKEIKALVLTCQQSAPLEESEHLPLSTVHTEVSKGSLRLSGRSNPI
Data set [5] has as its target T1, Neuropeptide Y receptor type 1. As to the kind of experiment: Binding affinity to neuropeptide Y1 receptor in human MCF7 cells. Format: cell-based.
Data set [6] deals with T4, Neuropeptide Y receptor type 1 (Homo sapiens) (UniProt P25929).
T4 sequence (whole entry): T1 sequence (P25929 whole entry)

Data set [7] concerns the target T1, Neuropeptide Y receptor type 1. As to the kind of experiment: Binding affinity to neuropeptide Y1 receptor in human SK-N-MC cells. The format is cell-based.
The target is the same in data set [8]. The experiment in a line: Binding affinity to neuropeptide Y1 receptor in human SK-N-MC cells by kinetic experiment. The format is cell-based.
Data set [9] can be described thus: Chemical stability of compound assessed as half life. Format: physicochemical.
Data set [10] has as its target T1, Neuropeptide Y receptor type 1. As to the kind of experiment: Binding affinity to neuropeptide Y1 receptor in human MCF7 cells by kinetic experiment. Format: cell-based.
Data set [11] shares this target. The experiment in a line: Displacement of [3H]propionyl-pNPY from neuropeptide Y1 receptor in human SK-N-MC cells. Format: cell-based.

Bounds are passed on as bounds.

The values below come from ChEMBL document CHEMBL1151759 (J Med Chem, 2008).

The Ki is the dissociation constant of the complex between target and ligand, obtained from inhibition or displacement. As usually defined, the IC50 is the concentration that inhibits the measured activity by half. What is called Kd is the free concentration of one partner at which half of the binding sites on the other are occupied at equilibrium, for simple one-to-one binding. Low readings indicate a tighter complex, high ones a looser complex. Broadly, the pKb is the Kb on a negative log10 scale, so that one unit is a factor of ten. Read a high pKb as a small Kb. As usually defined, the half-life is the time in which the quantity being followed falls by half.

In turn, `CCOC(=O)CNC(=O)/N=C(/N)NCCC[C@@H](NC(=O)C(c1ccccc1)c1ccccc1)C(=O)NCc1ccc(O)cc1` gave a Ki in [1] of 0.1 nM.
In turn, `CCC(=O)/N=C(/N)NCCC[C@@H](NC(=O)C(c1ccccc1)c1ccccc1)C(=O)NCc1ccc(O)cc1` gave an IC50 in [1] of 2.24 nM. For the same compound, binding in [1] was put at a Kd of 1.2 nM. The Ki in data set [1] is 1 nM; in data set [2], greater than 10000 nM; in [3], greater than 2000 nM; in data set [4], greater than 10000 nM; in data set [5], 1.2 nM. In [6], this compound gave a pKb of 9.1.
As for `[3H]CC([3H])C(=O)/N=C(/N)NCCC[C@@H](NC(=O)C(c1ccccc1)c1ccccc1)C(=O)NCc1ccc(O)cc1` (some centres undefined), the Kd in [5] was 2.9 nM; in data set [7] it was 1.2 nM; in data set [8], 1.1 nM; in data set [10], 1.1 nM. Moreover, in data set [9], the half-life is 2.2 min.
`CCC/N=C(/N)NCCC[C@@H](NC(=O)C(c1ccccc1)c1ccccc1)C(=O)NCc1ccc(O)cc1`: in [11], the inhibition constant (Ki) came out at 27 nM.
The same measure, in the same setting: in the case of `CCOC(=O)NC(N)=NCCC[C@@H](NC(=O)C(c1ccccc1)c1ccccc1)C(=O)NCc1ccc(O)cc1` it was 4.5 nM.
Still for that read-out and setting: then `CC(=O)/N=C(/N)NCCC[C@@H](NC(=O)C(c1ccccc1)c1ccccc1)C(=O)NCc1ccc(O)cc1`, with 12 nM; and `COC(=O)NC(N)=NCCC[C@@H](NC(=O)C(c1ccccc1)c1ccccc1)C(=O)NCc1ccc(O)cc1`, with 33 nM.
On to `CCNC(=O)/N=C(/N)NCCC[C@@H](NC(=O)C(c1ccccc1)c1ccccc1)C(=O)NCc1ccc(O)cc1`, for which the Ki in [1] was determined as 0.1 nM. This lies in the sub-nanomolar range.
